Conditions: for surface tension liquid-gas: Drop volume; for mass density / kinematic viscosity / speed of sound / vapor or sublimation pressure: Liquid; for mass density: Vibrating tube method; for kinematic viscosity / speed of sound: 101.33 kPa; for kinematic viscosity: Capillary tube (Ostwald / Ubbelohde) method; for speed of sound: Sing-around technique in a fixed-path interferometer; for vapor or sublimation pressure: Ebulliometric method (Recirculating still)

Cc1ccco1 [2-methylfuran]
Conditions	kinematic viscosity [m2/s]	speed of sound [m/s]	surface tension liquid-gas [mN/m]	vapor or sublimation pressure [kPa]
278.15 K	5.39e-07	1254.8	27.02	–
280.65 K	5.23e-07	1243.4	26.6	–
283.15 K	5.08e-07	1231.9	26.29	–
285.37 K	–	–	–	12.57
285.65 K	4.93e-07	1220.4	26	–
286.86 K	–	–	–	13.65
288.15 K	4.79e-07	1209	25.69	–
289.1 K	–	–	–	15.22
290.65 K	4.66e-07	1197.5	25.26	–
291.81 K	–	–	–	17.26
293.15 K	4.55e-07	1186	24.98	–
293.4 K	–	–	–	18.52
294.3 K	–	–	–	19.48
295.65 K	4.46e-07	1174.6	24.66	–
295.86 K	–	–	–	20.63
297.45 K	–	–	–	22.34
298.15 K	4.38e-07	1163.2	24.34	–
299.76 K	–	–	–	24.68
300.65 K	4.29e-07	1151.9	24.03	–
300.83 K	–	–	–	25.8
303.15 K	4.2e-07	1140.6	23.71	–
303.45 K	–	–	–	28.68
305.13 K	–	–	–	30.8
305.65 K	4.11e-07	1129.3	23.41	–
307.42 K	–	–	–	33.94
308.15 K	4.01e-07	1118.1	23.06	–
308.17 K	–	–	–	35.04
310.12 K	–	–	–	37.92
310.65 K	3.92e-07	1106.8	22.71	–
312.06 K	–	–	–	41.03
313.15 K	3.83e-07	1095.6	22.37	–
314.02 K	–	–	–	44.3
315.65 K	3.74e-07	1084.4	22.08	–
316.08 K	–	–	–	47.94
317.22 K	–	–	–	50.08
318.15 K	3.66e-07	1073.3	21.69	–
319.29 K	–	–	–	54.16
320.65 K	3.58e-07	1062.1	21.35	–
321.15 K	–	–	–	58.19
323.05 K	–	–	–	62.23
323.15 K	3.5e-07	1051	21	–
325.57 K	–	–	–	68.18
325.65 K	3.42e-07	1039.9	20.7	–
327.23 K	–	–	–	72.31
328.15 K	3.36e-07	1028.8	20.46	–
329.07 K	–	–	–	77.17
330.65 K	3.28e-07	1017.7	20.08	–
331.13 K	–	–	–	82.86
333.15 K	3.2e-07	1006.7	19.74	–
333.27 K	–	–	–	89.15
334.25 K	–	–	–	92.22
335.65 K	3.13e-07	995.68	19.41	–
336.39 K	–	–	–	99.03
337.09 K	–	–	–	101.33
338.15 K	3.07e-07	984.65	19.09	–

Conditions	mass density [kg/m3]
278.15 K, 99 kPa	934.034
280.65 K, 99 kPa	931.092
283.15 K, 99 kPa	928.13
283.15 K, 100 kPa	928.13
283.15 K, 2500 kPa	930.56
283.15 K, 5000 kPa	932.75
283.15 K, 7500 kPa	935.07
283.15 K, 10000 kPa	937.27
283.15 K, 20000 kPa	945.74
283.15 K, 30000 kPa	953.37
283.15 K, 40000 kPa	960.5
283.15 K, 50000 kPa	967.21
283.15 K, 60000 kPa	973.54
285.65 K, 99 kPa	925.161
288.15 K, 99 kPa	922.181
288.15 K, 100 kPa	922.18
288.15 K, 2500 kPa	924.54
288.15 K, 5000 kPa	926.97
288.15 K, 7500 kPa	929.48
288.15 K, 10000 kPa	931.62
288.15 K, 20000 kPa	940.4
288.15 K, 30000 kPa	948.28
288.15 K, 40000 kPa	955.59
288.15 K, 50000 kPa	962.35
288.15 K, 60000 kPa	968.84
290.65 K, 99 kPa	919.197
293.15 K, 99 kPa	916.198
293.15 K, 100 kPa	916.2
293.15 K, 2500 kPa	918.63
293.15 K, 5000 kPa	921.3
293.15 K, 7500 kPa	923.72
293.15 K, 10000 kPa	926.09
293.15 K, 20000 kPa	934.94
293.15 K, 30000 kPa	943.1
293.15 K, 40000 kPa	950.59
293.15 K, 50000 kPa	957.61
293.15 K, 60000 kPa	964.27
295.65 K, 99 kPa	913.193
298.15 K, 99 kPa	910.179
298.15 K, 100 kPa	910.18
298.15 K, 2500 kPa	912.71
298.15 K, 5000 kPa	915.3
298.15 K, 7500 kPa	918
298.15 K, 10000 kPa	920.32
298.15 K, 20000 kPa	929.72
298.15 K, 30000 kPa	937.91
298.15 K, 40000 kPa	945.67
298.15 K, 50000 kPa	952.89
298.15 K, 60000 kPa	959.58
300.65 K, 99 kPa	907.155
303.15 K, 99 kPa	904.121
303.15 K, 100 kPa	904.12
303.15 K, 2500 kPa	906.73
303.15 K, 5000 kPa	909.46
303.15 K, 7500 kPa	912.07
303.15 K, 10000 kPa	914.76
303.15 K, 20000 kPa	924.23
303.15 K, 30000 kPa	932.75
303.15 K, 40000 kPa	940.68
303.15 K, 50000 kPa	948.03
303.15 K, 60000 kPa	955.1
305.65 K, 99 kPa	901.077
308.15 K, 99 kPa	898.02
308.15 K, 100 kPa	898.02
308.15 K, 2500 kPa	900.91
308.15 K, 5000 kPa	903.72
308.15 K, 7500 kPa	906.43
308.15 K, 10000 kPa	909.05
308.15 K, 20000 kPa	918.85
308.15 K, 30000 kPa	927.65
308.15 K, 40000 kPa	935.68
308.15 K, 50000 kPa	943.2
308.15 K, 60000 kPa	950.35
310.65 K, 99 kPa	894.953
313.15 K, 99 kPa	891.871
313.15 K, 100 kPa	891.87
313.15 K, 2500 kPa	894.72
313.15 K, 5000 kPa	897.62
313.15 K, 7500 kPa	900.57
313.15 K, 10000 kPa	903.14
313.15 K, 20000 kPa	913.34
313.15 K, 30000 kPa	922.45
313.15 K, 40000 kPa	930.83
313.15 K, 50000 kPa	938.5
313.15 K, 60000 kPa	945.71
315.65 K, 99 kPa	888.779
318.15 K, 99 kPa	885.676
318.15 K, 100 kPa	885.68
318.15 K, 2500 kPa	888.8
318.15 K, 5000 kPa	891.79
318.15 K, 7500 kPa	894.77
318.15 K, 10000 kPa	897.58
318.15 K, 20000 kPa	907.94
318.15 K, 30000 kPa	917.27
318.15 K, 40000 kPa	925.75
318.15 K, 50000 kPa	933.61
318.15 K, 60000 kPa	941.15
320.65 K, 99 kPa	882.558
323.15 K, 99 kPa	879.425
323.15 K, 100 kPa	879.43
323.15 K, 2500 kPa	882.68
323.15 K, 5000 kPa	885.8
323.15 K, 7500 kPa	888.76
323.15 K, 10000 kPa	891.8
323.15 K, 20000 kPa	902.39
323.15 K, 30000 kPa	911.96
323.15 K, 40000 kPa	920.89
323.15 K, 50000 kPa	929.01
323.15 K, 60000 kPa	936.53
325.65 K, 99 kPa	876.278
328.15 K, 99 kPa	873.118
328.15 K, 100 kPa	873.12
328.15 K, 2500 kPa	876.29
328.15 K, 5000 kPa	879.75
328.15 K, 7500 kPa	882.71
328.15 K, 10000 kPa	885.92
328.15 K, 20000 kPa	896.99
328.15 K, 30000 kPa	906.92
328.15 K, 40000 kPa	915.88
328.15 K, 50000 kPa	924.13
328.15 K, 60000 kPa	931.92
330.65 K, 99 kPa	869.944
333.15 K, 99 kPa	866.753
333.15 K, 100 kPa	866.75
333.15 K, 2500 kPa	870.11
333.15 K, 5000 kPa	873.62
333.15 K, 7500 kPa	876.95
333.15 K, 10000 kPa	880.01
333.15 K, 20000 kPa	891.39
333.15 K, 30000 kPa	901.64
333.15 K, 40000 kPa	910.95
333.15 K, 50000 kPa	919.48
333.15 K, 60000 kPa	927.42
335.65 K, 99 kPa	863.547
338.15 K, 99 kPa	860.327
338.15 K, 100 kPa	860.33
338.15 K, 2500 kPa	863.95
338.15 K, 5000 kPa	867.36
338.15 K, 7500 kPa	870.91
338.15 K, 10000 kPa	874.16
338.15 K, 20000 kPa	886.03
338.15 K, 30000 kPa	896.44
338.15 K, 40000 kPa	905.99
338.15 K, 50000 kPa	914.74
338.15 K, 60000 kPa	922.79

— the NIST ThermoML archive (doi:10.1016/j.tca.2015.08.013)
